Key:
[1] = test system: passive cutaneous anaphylaxis (PCA); experiment: Effect on passive cutaneous anaphylaxis (PCA); assay type: in vivo, male Wister rats; details: 1 hour prior to antigen challenge, rat
Description: (1) Effect on passive cutaneous anaphylaxis (PCA)
A serum containing the homocytotropic antibody was intracutaneously injected at four points of the shaven back of the male Wister rats weighing 180 to 200 g. Fourty-eight hours after the injection, a physiological saline containing 2.0 mg of DNP-As and 2.5 mg of Evans Blue to induce response, and the rats were dehematized to death in 30 minutes. […] The present compounds were administered to the rats 1 hour prior to the antigen challenge.

[2] = Acute toxicity test; details: mouse, in vivo, ip; male ddy mice, intraperitoneal, solution in physiological saline, up-down method
Description: Male ddy mice weighing about 20 g were used. A solution of the compound in physiological saline was injected intraperitoneally. The dose lethal to 50% of mice was determined by the up-down method.

With `C[S+](C)CCC(=O)Nc1ccc(OCC(O)CO)cc1.Cc1ccc(S(=O)(=O)[O-])cc1` (centres unmarked) [Compound 4, 2-{4-(2,3-dihydroxypropoxy)phenylcarbamoyl}ethyldimethylsulfonium p-toluenesulfonate] the inhibition in vivo at 50 mg/kg [1] was 48.8% and the LD50 [2] was 1040 mg/kg.

In the case of `COCC(O)COc1ccc(NC(=O)CC[S+](C)C)cc1.Cc1ccc(S(=O)(=O)[O-])cc1` (centres unmarked) [Compound 7, 2-{4-(2-hydroxy-3-methoxypropoxy)phenylcarbamoyl}ethyldimethylsulfonium p-toluenesulfonate], the inhibition in vivo at 100 mg/kg [1] is reported as 57% and the LD50 [2] is reported as 359 mg/kg.

Work on `CCOCC(O)COc1ccc(NC(=O)CC[S+](C)C)cc1` (centres unmarked) [Compound 8] yielded an inhibition in vivo at 20 mg/kg [1] of 57% and an LD50 [2] of 254 mg/kg.

Work on `CCCOCC(O)COc1ccc(NC(=O)CC[S+](C)C)cc1` (centres unmarked) [Compound 10] yielded an inhibition in vivo at 100 mg/kg [1] of 47% and an LD50 [2] of 171 mg/kg.

Work on `C[S+](C)CCC(=O)Nc1ccc(OCC(O)COC2CCCCC2)cc1` (centres unmarked) [Compound 17] yielded an inhibition in vivo at 100 mg/kg [1] of 47% and an LD50 [2] of 93.6 mg/kg.

Work on `C[S+](C)CCC(=O)Nc1ccc(OCC(O)COc2ccccc2)cc1` (centres unmarked) [Compound 18] yielded an inhibition in vivo at 100 mg/kg [1] of 34% and an LD50 [2] of 112 mg/kg.

In the case of `COCC(COc1ccc(NC(=O)CC[S+](C)C)cc1)OC` (centres unmarked) [Compound 19], the inhibition in vivo at 10 mg/kg [1] is reported as 51.6% and the LD50 [2] is reported as 254 mg/kg.

Molecule `CCOCC(COc1ccc(NC(=O)CC[S+](C)C)cc1)OCC` (centres unmarked) [Compound 20] has an inhibition in vivo at 50 mg/kg [1] of 35.1% and an LD50 [2] of 179 mg/kg.

For `CCOCC(COc1ccc(NC(=O)CC[S+](C)C)cc1)OC(C)=O` (centres unmarked) [Compound 25], the inhibition in vivo at 100 mg/kg [1] was 63.6% and the LD50 [2] was 233 mg/kg.

With `CCCOCC(COc1ccc(NC(=O)CC[S+](C)C)cc1)OCCC` (centres unmarked) [Compound 29] the inhibition in vivo at 50 mg/kg [1] was 46.2% and the LD50 [2] was 75.2 mg/kg.

In the case of `CC(=O)OCC(COc1ccc(NC(=O)CC[S+](C)C)cc1)OC(C)=O` (centres unmarked) [Compound 32], the inhibition in vivo at 10 mg/kg [1] is reported as 47% and the LD50 [2] is reported as 366 mg/kg.

Work on `C[S+](C)CCOc1ccccc1OCC(O)CO.Cc1ccc(S(=O)(=O)[O-])cc1` (centres unmarked) [Compound 40, 2-{2-(2,3-dihydroxypropoxy)phenoxy}ethyldimethylsulfonium p-toluenesulfonate] yielded an inhibition in vivo at 200 mg/kg [1] of 53.2% and an LD50 [2] of 283 mg/kg.

`C[S+](C)CCOc1cccc(OCC(O)CO)c1` (centres unmarked) [Compound 42] showed an inhibition in vivo at 200 mg/kg [1] of 58.4% and an LD50 [2] of 231 mg/kg.

For `C[S+](C)CCOc1ccc(OCC(O)CO)cc1` (centres unmarked) [Compound 44], the inhibition in vivo at 200 mg/kg [1] was 57% and the LD50 [2] was 352 mg/kg.

`COCC(O)COc1ccc(OCC[S+](C)C)cc1.Cc1ccc(S(=O)(=O)[O-])cc1` (centres unmarked) [Compound 45, 2-{4-(2-hydroxy-3-methoxypropoxy)phenoxy}ethyldimethylsulfonium p-toluenesulfonate] showed an inhibition in vivo at 200 mg/kg [1] of 59% and an LD50 [2] of 302 mg/kg.

`CCOCC(O)COc1ccc(OCC[S+](C)C)cc1` (centres unmarked) [Compound 46] showed an inhibition in vivo at 100 mg/kg [1] of 64.8%.

With `CCCOCC(O)COc1ccc(OCC[S+](C)C)cc1` (centres unmarked) [Compound 47] the inhibition in vivo at 50 mg/kg [1] was 39.2% and the LD50 [2] was 293 mg/kg.

`CCOCCOCC(O)COc1ccc(OCC[S+](C)C)cc1` (centres unmarked) [Compound 48] showed an inhibition in vivo at 20 mg/kg [1] of 48% and an LD50 [2] of 302 mg/kg.

For `C[S+](C)CCOc1ccc(OCC(O)COCC2CCCO2)cc1` (centres unmarked) [Compound 49], the inhibition in vivo at 20 mg/kg [1] was 42.5% and the LD50 [2] was 221 mg/kg.

For `C[S+](C)CCOc1ccc(OCC(O)COc2ccccc2)cc1.Cc1ccc(S(=O)(=O)[O-])cc1` (centres unmarked) [Compound 51, 2-{4-(2-hydroxy-3-phenoxypropoxy)phenoxy}ethyldimethylsulfonium p-toluenesulfonate], the inhibition in vivo at 100 mg/kg [1] was 56.7% and the LD50 [2] was 150 mg/kg.

`CCOCC(COc1ccc(OCC[S+](C)C)cc1)OCC` (centres unmarked) [Compound 52] gave an inhibition in vivo at 100 mg/kg [1] of 53.3% and an LD50 [2] of 132 mg/kg.

For `C[S+](C)CCOc1ccc(OCC(O)COC(N)=O)cc1` (centres unmarked) [Compound 54], the inhibition in vivo at 20 mg/kg [1] was 51.8% and the LD50 [2] was 327 mg/kg.

`CC(=O)OCC(COc1ccc(OCC[S+](C)C)cc1)OC(C)=O` (centres unmarked) [Compound 55] gave an inhibition in vivo at 50 mg/kg [1] of 55.2% and an LD50 [2] of 291 mg/kg.

With `C[S+](C)CCOc1ccc(OCC(COC(=O)c2ccccc2)OC(=O)c2ccccc2)cc1` (centres unmarked) [Compound 56] the inhibition in vivo at 100 mg/kg [1] was 44.7% and the LD50 [2] was 85 mg/kg.
